Laboratory results: ChEMBL document CHEMBL1201862, “PubChem BioAssay data set” (2004)
One block for each compound: values may come before it. Activity calls are given as the source filed them.

Columns and labels:
[1] = biological target: Prothrombin (Homo sapiens, UniProt P00734); assay: Thrombin 1536 HTS Dose Response Confirmation. [Related pubchem assays: 1046 (Thrombin 1536 HTS; hits were confirmed in this assay)]; assay type: functional
[2] = biological target: T1, Lysosomal acid glucosylceramidase (Homo sapiens, UniProt P04062); assay: Dose response cell-based high throughput screening assay to identify enhancers of beta-glucosidase activity. [Related pubchem assays: 784 ]; assay type: functional
T1 sequence (P04062 whole entry): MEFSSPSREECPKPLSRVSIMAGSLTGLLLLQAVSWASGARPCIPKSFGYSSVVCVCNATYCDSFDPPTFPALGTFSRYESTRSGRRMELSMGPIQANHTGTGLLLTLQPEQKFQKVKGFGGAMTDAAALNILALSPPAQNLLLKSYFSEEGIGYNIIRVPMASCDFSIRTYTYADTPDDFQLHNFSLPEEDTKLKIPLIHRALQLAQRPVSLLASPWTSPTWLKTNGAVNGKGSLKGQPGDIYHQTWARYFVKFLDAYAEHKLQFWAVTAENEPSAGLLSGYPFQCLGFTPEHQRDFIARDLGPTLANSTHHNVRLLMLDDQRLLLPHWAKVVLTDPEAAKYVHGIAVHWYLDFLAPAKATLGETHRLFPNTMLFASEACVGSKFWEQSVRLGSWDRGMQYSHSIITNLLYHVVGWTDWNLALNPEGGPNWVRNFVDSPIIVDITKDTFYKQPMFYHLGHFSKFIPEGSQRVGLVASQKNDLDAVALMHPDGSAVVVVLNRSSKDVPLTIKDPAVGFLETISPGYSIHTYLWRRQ

[3] = biological target: Paired box protein Pax-8 (Homo sapiens, UniProt Q06710); assay: inhibitors of PAX8-driven TPO luciferase reporter, dose response, RMG-I cells, cherry-pick (AID 687027); assay type: functional, cell-based;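 further: luciferase reporter driven by Pax8 target thyroperoxidase promoter measured by SteadyGlo luminescence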
Paired box protein Pax-8, sequence (Q06710 whole entry): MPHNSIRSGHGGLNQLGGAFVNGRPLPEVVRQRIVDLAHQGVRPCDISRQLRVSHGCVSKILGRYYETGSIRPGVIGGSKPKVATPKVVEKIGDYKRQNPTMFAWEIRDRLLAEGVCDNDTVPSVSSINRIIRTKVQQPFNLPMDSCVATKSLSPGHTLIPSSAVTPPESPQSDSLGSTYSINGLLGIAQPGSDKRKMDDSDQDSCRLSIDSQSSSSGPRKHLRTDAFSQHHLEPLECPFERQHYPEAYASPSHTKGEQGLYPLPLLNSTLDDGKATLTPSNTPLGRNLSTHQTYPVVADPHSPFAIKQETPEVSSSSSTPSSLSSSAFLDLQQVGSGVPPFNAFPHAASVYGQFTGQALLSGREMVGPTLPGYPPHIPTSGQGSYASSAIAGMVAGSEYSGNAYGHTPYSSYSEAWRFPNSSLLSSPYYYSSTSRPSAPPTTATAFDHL

[4] = NIH:OVCAR-3 ovarian cancer cell cytotoxicity, dose response, PAX8 inhibitor project, plate reader, dry powder samples (AID 743044); assay type: functional, cell-based
[5] = IGROV1 ovarian cancer cell cytotoxicity, dose response, PAX8 inhibitor project, plate reader, dry powder samples (AID 743043); assay type: functional, cell-based; conditions: IGROV-1
[6] = cytotoxicity in OVCAR8 ovarian cancer cells, dose response, PAX8 project, cell-based, plate reader, dry powder samples (AID 743197); assay type: functional; conditions: OVCAR-8
[7] = A549 cell cytotoxicity, dose response, cytotoxicity control, plate reader, cherry-pick, antagonist series (AID 743412); assay type: functional, cell-based
[8] = HepG2 cell cytotoxicity, dose response, cytotoxicity control, plate reader, cherry-pick, antagonist series (AID 743416); assay type: functional, cell-based
[9] = LGR2 antagonists, dose response, cell-based, HEK293, CRE-luciferase reporter, cherry pick, set 2 (AID 743343); assay type: functional;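 further: transfected cells were stimulated with diluted bursicon conditioned medium after compound addition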
[10] = MC4R antagonists, dose response, counter-screen for LGR2 antagonist project, cell-based, plate reader, cherry pick (AID 743444); assay type: functional;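 further: transfected HEK 293 cells stimulated with alpha-MSH peptide; potency of inhibitors of the alpha-MSH evoked signal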
[11] = biological target: T2, Oxysterols receptor LXR-beta (Homo sapiens, UniProt P55055); assay type: functional, cell-based;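 further: Cell-based luminescence dose-response assay of agonist activity at LXR, run as a confirmatory counterscreen to a daf-12 agonist screen; HEK293 cells with Gal4-LXR fusion and GAL4-driven luciferase reporter; agonist potency from rising luciferase signal of a Gal4-LXR reporter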
T2 sequence (P55055 whole entry): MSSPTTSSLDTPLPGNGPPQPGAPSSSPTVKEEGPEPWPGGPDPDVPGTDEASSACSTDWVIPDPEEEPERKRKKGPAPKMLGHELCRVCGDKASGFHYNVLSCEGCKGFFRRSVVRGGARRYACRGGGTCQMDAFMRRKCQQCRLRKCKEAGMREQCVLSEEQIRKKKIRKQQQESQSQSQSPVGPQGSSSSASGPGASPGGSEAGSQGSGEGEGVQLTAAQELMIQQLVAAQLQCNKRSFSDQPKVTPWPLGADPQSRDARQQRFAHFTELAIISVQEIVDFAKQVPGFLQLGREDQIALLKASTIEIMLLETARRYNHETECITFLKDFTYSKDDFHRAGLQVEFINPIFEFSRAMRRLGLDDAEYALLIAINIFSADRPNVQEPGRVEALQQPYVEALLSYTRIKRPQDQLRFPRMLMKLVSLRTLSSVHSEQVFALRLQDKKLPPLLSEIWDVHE

[12] = cells
[13] = biological target: T3, Luciferin 4-monooxygenase (Photinus pyralis, UniProt P08659); assay: Counter Screen for Luciferase-based Assay Positives. [Related pubchem assays: 620, 618, 411 ]
T3 sequence (P08659 whole entry): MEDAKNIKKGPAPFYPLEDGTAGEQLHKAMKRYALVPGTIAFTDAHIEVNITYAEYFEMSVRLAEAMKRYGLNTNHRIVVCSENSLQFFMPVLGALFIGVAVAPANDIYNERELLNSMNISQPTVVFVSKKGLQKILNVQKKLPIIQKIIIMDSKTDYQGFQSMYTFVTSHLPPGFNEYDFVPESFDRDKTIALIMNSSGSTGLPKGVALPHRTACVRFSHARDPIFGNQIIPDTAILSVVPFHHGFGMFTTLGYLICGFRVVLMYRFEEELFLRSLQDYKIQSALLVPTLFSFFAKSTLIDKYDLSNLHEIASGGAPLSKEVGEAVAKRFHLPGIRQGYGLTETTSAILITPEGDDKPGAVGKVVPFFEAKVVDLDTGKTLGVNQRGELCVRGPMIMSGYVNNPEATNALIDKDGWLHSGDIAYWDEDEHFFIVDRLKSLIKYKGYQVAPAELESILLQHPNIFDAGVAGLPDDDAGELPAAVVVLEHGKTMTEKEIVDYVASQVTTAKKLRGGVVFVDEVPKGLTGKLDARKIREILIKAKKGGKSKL

[14] = biological target: T3, Luciferin 4-monooxygenase; assay: firefly luciferase enzyme inhibitors, dose response, biochemical, luminescence (AID 1891)
[15] = Luminescence Cell-Based Dose Confirmation HTS to Identify Inhibitors of Platelet Dense Granule Release. [Related pubchem assays: 1663 (Primary HTS), 1678 (Summary of Project)]; assay type: functional
[16] = system: HT-1080; assay: cytotoxicity in HT1080 fibrosarcoma cells, cell-based, fluorescence readout (AID 620); assay type: functional; conditions: Homo sapiens
[17] = cells; assay type: functional, cell-based
[18] = cells; assay type: functional, cell-based; remark: listed apart in the source
[19] = HEK293 cell cytotoxicity, dose response, cytotoxicity control, plate reader, cherry-picked samples (AID 743446); assay type: functional, cell-based
[20] = biological target: Heat shock protein HSP 90-alpha (Homo sapiens, UniProt P07900); assay: Luminescence-based dose response biochemical high throughput screening assay for inhibitors of the Heat Shock Protein 90 (HSP90). [Related pubchem assays: 1831 (Summary AID.), 1846 (Confirmation screen.), 1789 (Primary screen.)]
[21] = biological target: T4, Mucolipin-3 (Homo sapiens, UniProt Q8TDD5); assay: Dose response cell-based high-throughput screening assay for agonists of the transient receptor potential channel ML3 (TRPML3). [Related pubchem assays: 1526, 1424, 1448 ]; assay type: functional
T4 sequence (Q8TDD5 whole entry): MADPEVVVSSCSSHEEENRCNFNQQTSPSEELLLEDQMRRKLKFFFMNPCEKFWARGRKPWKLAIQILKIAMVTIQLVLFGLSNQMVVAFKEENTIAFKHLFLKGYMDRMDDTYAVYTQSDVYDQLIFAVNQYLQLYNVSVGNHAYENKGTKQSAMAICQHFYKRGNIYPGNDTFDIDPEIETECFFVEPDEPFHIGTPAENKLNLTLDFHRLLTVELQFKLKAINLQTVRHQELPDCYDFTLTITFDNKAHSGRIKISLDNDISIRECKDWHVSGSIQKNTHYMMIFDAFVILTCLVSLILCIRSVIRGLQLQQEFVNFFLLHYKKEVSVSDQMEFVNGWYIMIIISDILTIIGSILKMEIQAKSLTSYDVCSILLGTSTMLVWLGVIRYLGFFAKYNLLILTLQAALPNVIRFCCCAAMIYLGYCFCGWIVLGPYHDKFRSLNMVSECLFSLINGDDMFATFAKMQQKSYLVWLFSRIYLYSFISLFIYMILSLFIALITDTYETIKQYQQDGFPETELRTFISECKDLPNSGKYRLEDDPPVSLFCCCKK

[22] = biological target: Ion channel NompC (Danio rerio, UniProt Q7T1G6); assay: Fluorescence counterscreen assay for TRPML3 agonists: dose response cell-based high-throughput screening assay to identify agonists of the transient receptor potential channel N1 (TRPN1). [Related pubchem assays: 1526, 1424, 1448 ]; assay type: functional
Ion channel NompC, sequence (Q7T1G6 whole entry): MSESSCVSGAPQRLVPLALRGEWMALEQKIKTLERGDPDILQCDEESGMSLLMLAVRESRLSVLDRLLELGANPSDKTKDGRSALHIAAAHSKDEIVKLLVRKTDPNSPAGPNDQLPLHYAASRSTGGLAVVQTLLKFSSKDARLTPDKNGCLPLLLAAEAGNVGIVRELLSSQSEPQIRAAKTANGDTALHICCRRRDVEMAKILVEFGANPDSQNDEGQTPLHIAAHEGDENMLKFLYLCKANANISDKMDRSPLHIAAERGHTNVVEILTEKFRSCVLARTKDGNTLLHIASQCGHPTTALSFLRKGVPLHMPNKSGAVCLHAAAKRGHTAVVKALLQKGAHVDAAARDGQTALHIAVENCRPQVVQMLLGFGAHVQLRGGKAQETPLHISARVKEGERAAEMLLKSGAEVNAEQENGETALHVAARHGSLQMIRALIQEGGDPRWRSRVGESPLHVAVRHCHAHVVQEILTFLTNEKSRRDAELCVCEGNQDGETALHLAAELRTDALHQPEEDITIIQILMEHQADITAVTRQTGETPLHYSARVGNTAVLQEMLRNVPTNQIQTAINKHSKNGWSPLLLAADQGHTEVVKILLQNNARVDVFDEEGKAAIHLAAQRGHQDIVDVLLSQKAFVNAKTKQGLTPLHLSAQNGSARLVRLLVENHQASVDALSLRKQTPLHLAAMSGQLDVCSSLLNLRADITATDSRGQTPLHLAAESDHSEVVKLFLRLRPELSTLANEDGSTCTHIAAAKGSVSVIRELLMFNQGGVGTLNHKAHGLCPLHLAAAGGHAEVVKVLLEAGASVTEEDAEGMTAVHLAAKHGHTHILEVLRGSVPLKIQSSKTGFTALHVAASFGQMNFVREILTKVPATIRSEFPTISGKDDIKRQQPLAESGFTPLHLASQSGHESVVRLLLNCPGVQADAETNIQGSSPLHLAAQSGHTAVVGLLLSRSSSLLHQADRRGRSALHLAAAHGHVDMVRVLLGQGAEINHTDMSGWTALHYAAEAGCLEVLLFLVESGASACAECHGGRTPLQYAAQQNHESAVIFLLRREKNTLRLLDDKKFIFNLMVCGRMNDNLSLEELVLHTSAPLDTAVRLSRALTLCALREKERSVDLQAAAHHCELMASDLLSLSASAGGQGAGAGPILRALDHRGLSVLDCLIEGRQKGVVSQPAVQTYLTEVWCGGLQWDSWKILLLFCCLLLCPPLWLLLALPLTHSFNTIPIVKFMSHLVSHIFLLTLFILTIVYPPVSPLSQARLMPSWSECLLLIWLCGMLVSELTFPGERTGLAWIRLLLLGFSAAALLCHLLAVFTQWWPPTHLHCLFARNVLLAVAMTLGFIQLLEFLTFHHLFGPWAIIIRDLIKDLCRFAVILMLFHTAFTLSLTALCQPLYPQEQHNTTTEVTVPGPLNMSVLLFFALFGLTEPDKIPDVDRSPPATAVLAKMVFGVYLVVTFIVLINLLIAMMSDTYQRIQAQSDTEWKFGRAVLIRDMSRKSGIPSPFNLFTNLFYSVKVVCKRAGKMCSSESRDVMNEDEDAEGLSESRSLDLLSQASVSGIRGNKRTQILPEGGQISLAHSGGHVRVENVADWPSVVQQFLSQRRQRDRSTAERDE

[23] = biological target: T5, fMet-Leu-Phe receptor (Homo sapiens, UniProt P21462); assay: FPR ligands, dose response (AID 519); assay type: functional
T5 sequence (P21462 whole entry): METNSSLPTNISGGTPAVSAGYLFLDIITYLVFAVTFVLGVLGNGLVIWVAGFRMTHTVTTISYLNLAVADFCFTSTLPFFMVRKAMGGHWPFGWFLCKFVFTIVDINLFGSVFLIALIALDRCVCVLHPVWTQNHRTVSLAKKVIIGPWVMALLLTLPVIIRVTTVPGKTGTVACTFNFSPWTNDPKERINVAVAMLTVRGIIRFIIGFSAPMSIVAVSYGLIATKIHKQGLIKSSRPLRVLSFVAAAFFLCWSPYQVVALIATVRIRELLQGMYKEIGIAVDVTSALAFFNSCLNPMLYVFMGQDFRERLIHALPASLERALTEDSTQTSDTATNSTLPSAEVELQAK

[24] = biological target: T6, Cytochrome P450 1A2 (Homo sapiens, UniProt P05177);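 further: PubChem cytochrome P450 panel assay, CYP1A2 panel member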
T6 sequence (P05177 whole entry): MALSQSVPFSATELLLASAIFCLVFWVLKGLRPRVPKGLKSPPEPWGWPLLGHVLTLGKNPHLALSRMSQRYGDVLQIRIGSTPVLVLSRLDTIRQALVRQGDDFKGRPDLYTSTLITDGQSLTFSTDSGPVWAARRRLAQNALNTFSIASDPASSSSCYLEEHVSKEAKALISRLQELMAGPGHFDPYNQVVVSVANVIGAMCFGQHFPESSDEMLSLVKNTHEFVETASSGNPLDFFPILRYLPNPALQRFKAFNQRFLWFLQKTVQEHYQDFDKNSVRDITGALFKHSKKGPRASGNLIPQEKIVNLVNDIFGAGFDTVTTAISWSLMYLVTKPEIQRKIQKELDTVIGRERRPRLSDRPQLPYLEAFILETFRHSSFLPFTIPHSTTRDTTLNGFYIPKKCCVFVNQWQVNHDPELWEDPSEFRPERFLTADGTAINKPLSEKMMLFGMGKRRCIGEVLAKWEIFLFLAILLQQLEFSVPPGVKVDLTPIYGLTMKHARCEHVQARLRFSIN

[25] = biological target: Cytochrome P450 3A4 (Homo sapiens, UniProt P08684);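 further: CYP3A4 tested as one member of a cytochrome P450 panel screen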
Cytochrome P450 3A4, sequence (P08684 whole entry): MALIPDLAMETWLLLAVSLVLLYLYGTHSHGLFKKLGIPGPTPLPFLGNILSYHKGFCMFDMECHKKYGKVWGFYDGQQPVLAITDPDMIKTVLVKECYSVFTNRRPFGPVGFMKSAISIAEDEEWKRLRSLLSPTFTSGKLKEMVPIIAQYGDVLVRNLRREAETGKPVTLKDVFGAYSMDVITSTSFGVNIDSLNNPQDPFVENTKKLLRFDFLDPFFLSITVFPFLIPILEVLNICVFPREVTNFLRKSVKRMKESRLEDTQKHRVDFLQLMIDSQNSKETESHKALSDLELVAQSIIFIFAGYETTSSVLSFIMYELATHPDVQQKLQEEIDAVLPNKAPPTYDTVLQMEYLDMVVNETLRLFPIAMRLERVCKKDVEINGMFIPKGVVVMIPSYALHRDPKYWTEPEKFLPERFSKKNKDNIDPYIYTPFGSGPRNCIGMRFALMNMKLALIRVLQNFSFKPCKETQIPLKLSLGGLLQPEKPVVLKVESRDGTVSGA

[26] = biological target: Protein-tyrosine kinase 2-beta (Homo sapiens, UniProt Q14289);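 further: potency of inhibitors of PYK2 kinase phosphorylation of poly-GT substrate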
Protein-tyrosine kinase 2-beta, sequence (Q14289 whole entry): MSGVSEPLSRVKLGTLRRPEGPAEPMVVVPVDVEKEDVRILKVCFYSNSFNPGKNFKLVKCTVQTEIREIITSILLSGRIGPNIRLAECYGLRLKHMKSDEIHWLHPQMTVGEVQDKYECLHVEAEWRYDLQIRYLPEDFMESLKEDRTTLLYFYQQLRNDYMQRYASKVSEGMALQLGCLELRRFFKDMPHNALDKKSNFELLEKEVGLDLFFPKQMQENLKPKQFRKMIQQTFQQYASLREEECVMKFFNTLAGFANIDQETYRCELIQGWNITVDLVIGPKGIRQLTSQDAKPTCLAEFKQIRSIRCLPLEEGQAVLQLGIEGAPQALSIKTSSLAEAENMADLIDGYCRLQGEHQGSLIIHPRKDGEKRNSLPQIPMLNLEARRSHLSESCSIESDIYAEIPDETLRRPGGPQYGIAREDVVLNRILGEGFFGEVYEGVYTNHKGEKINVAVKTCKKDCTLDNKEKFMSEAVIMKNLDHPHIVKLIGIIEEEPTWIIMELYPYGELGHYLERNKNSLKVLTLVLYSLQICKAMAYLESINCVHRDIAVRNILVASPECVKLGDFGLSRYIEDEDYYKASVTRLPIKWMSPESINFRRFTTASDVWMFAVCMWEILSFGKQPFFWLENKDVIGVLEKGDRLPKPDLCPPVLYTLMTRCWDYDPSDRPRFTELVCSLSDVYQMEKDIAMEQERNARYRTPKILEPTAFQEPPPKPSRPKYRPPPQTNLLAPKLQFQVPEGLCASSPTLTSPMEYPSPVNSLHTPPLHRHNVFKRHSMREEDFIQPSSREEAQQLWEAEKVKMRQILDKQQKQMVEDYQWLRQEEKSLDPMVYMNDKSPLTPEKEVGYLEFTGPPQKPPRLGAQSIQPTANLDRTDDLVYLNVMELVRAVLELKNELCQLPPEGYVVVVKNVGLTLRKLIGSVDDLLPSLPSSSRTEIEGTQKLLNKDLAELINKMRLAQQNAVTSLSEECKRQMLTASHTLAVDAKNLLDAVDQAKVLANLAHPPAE

[27] = biological target: Cytochrome P450 2C19 (Homo sapiens, UniProt P33261); assay: Cytochrome panel assay with activity outcomes. Panel member name: p450-cyp2c19 Compounds with AC50 equal or less than 10 uM are considered active; assay type: functional; conditions: read-out: AC50
Cytochrome P450 2C19, sequence (P33261 whole entry): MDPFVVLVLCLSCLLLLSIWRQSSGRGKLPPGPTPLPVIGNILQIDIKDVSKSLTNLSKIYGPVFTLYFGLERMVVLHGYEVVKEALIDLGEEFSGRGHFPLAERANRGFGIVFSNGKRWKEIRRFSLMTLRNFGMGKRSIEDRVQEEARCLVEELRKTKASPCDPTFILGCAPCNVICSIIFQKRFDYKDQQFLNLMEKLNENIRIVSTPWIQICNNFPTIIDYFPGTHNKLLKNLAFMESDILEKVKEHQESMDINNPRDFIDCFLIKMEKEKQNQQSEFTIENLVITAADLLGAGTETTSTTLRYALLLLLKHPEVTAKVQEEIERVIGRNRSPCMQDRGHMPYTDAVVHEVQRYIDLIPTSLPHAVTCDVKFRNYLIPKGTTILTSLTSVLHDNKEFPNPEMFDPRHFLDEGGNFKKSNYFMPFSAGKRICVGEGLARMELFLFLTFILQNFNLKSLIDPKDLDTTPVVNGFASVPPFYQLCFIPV

SMILES: C[C@@H]1CCCCO[C@H](CN(C)Cc2ccc(Cl)c(Cl)c2)[C@H](C)CN([C@@H](C)CO)C(=O)c2cc(NS(=O)(=O)c3ccc(Cl)cc3)ccc2O1
AC50 [3]: 6.76 µM (active)
AC50 [4]: 24.6 µM (active)
AC50 [5]: 49.7 µM (active)
AC50 [6]: 33.7 µM (active)

SMILES: Cc1cc(-c2ccccc2)n2ncc(-c3ccccc3)c2n1
AC50 [7]: > 52 µM (inactive)
AC50 [8]: 39.3 µM (active)
AC50 [9]: 4.98 µM (active)
AC50 [10]: 7.1 µM (active)
EC50 [11]: > 67.5 µM (inactive)
EC50 [12]: > 67.5 µM (inactive)

SMILES: COc1cccc(-c2nc(-c3ccccn3)no2)c1
EC50 [13]: 6.27 µM (active)
EC50 [14]: 4.73 µM (active)
EC50 [15]: 8.12 µM (active)
EC50 [16]: > 50 µM (not active)

SMILES: O=C(Nc1ccc2ccccc2c1)c1ccccc1O
EC50 [17]: > 350 µM (not active)
EC50 [18]: 6.87 µM (active)
AC50 [7]: > 52 µM (inactive)
AC50 [8]: 6.27 µM (active)
AC50 [9]: 7.6 µM (active)
AC50 [10]: 6.02 µM (active)
EC50 [11]: > 67.6 µM (inactive)
AC50 [19]: 7.8 µM (active)
EC50 [12]: > 67.6 µM (inactive)

SMILES: Cc1csc(NC(=O)c2cc3c(s2)CCCC3)n1
EC50 [13]: 2.99 µM (active)
EC50 [16]: 25.7 µM (active)

SMILES: CCCn1c2c(c(O)c(C(=O)Nc3nccs3)c1=O)CCCC2
IC50 [1]: > 50 µM (not active)

SMILES: CC(C)(C)c1ccc(C(=O)c2c[nH]c(C(=O)O)c2)cc1
IC50 [20]: 0.469 µM (active)

SMILES: Cc1ccc(S(=O)(=O)N2CCC(C)CC2)c([N+](=O)[O-])c1
EC50 [21]: 3.83 µM (active)
EC50 [22]: > 29.9 µM (not active)

SMILES: Cc1ccc(S(=O)(=O)Nc2ccc3c(c2)C(=O)N([C@@H](C)CO)C[C@H](C)[C@H](CN(C)Cc2ccc(C(F)(F)F)cc2)OCCCC[C@H](C)O3)cc1
AC50 [3]: 6.16 µM (active)
AC50 [4]: 29.8 µM (active)
AC50 [5]: 42.5 µM (active)
AC50 [6]: 25.4 µM (active)

SMILES: Cc1nc(C)c(-c2csc(NCc3ccco3)n2)s1
EC50 [2]: > 50 µM (not active)

SMILES: Cc1n[nH]c(C)c1N=Nc1cc(Cl)ccc1Cl
IC50 [26]: > 69.5 µM (not active)
AC50 [27]: 1.12 µM (inconclusive)
AC50 [25]: 17.8 µM (inconclusive)

Results, then the compound that gave them:

IC50 [1]: 1.39 µM (active)
SMILES: O=C(CSc1nc(-c2ccccc2)nn1C(=O)c1ccccc1)Nc1cccc([N+](=O)[O-])c1

EC50 [2]: > 50 µM (not active)
SMILES: Cc1cc(NC(=O)CSc2nc3ccccc3[nH]2)no1

EC50 [2]: > 50 µM (not active)
SMILES: CCN(CC)S(=O)(=O)c1ccc(NC(=O)CN(c2cccc(F)c2)S(C)(=O)=O)cc1

EC50 [21]: 15.1 µM (not active)
EC50 [22]: > 29.9 µM (not active)
SMILES: O=S(=O)(c1ccc2ccccc2c1)N1CCCCC1

IC50 [20]: 5.72 µM (active)
SMILES: O=C(O)c1cc(N/N=C/c2cccnc2)ccc1Cl

Ki [23]: 19 µM (inactive)
AC50 [24]: 31.6 µM (inconclusive)
AC50 [25]: 25.1 µM (inconclusive)
SMILES: COc1ccc(CCN2C(=O)C(O)=C(C(=O)c3ccco3)C2c2cccs2)cc1OC (centres undefined)

EC50 [21]: 6.34 µM (active)
EC50 [22]: > 29.9 µM (not active)
SMILES: COc1ccc(CCNC(=O)COc2ccc(N(C)S(=O)(=O)c3ccc(Cl)cc3)cc2)cc1

IC50 [1]: 0.949 µM (active)
SMILES: Cc1cc(=O)oc2cc(OC(=O)c3ccco3)ccc12
